Laboratory results published in ChEMBL document CHEMBL3045044, “Further derivatives of 4-benzoyl-1,5-diphenyl-1H-pyrazole-3-carboxylic acid and their antibacterial activities” (2007).
In brackets after ≈: the same amount, converted by molar mass. Activity calls are given as the source filed them. No cut-off for these calls is given here.

Key:
Format in all cases: functional
Streptococcus pyogenes = assay: Antibacterial activity against Streptococcus pyogenes ATCC 176 after overnight incubation by microdilution method
Klebsiella pneumoniae = assay: Antibacterial activity against Klebsiella pneumoniae A137 after overnight incubation by microdilution method
Escherichia coli = assay: Antibacterial activity against Escherichia coli B3704 after overnight incubation by microdilution method
Bacillus subtilis = assay: Antibacterial activity against Bacillus subtilis ATCC 6633 after overnight incubation by microdilution method
Proteus vulgaris = assay: Antibacterial activity against Proteus vulgaris Kukem 1329 after overnight incubation by microdilution method
Staphylococcus aureus = assay: Antibacterial activity against Staphylococcus aureus ATCC 29213 after overnight incubation by microdilution method
Pseudomonas aeruginosa = assay: Antibacterial activity against Pseudomonas aeruginosa ATCC 9027 after overnight incubation by microdilution method
Xanthomonas campestris = assay: Antibacterial activity against Xanthomonas campestris A235 after overnight incubation by microdilution method
Enterococcus faecalis = assay: Antibacterial activity against Enterococcus faecalis ATCC 29122 after overnight incubation by microdilution method
Salmonella enteritidis = assay: Antibacterial activity against Salmonella enterica subsp. enterica serovar Enteritidis ATCC 1376 after overnight incubation by microdilution method

| Structure (SMILES) | MIC (Streptococcus pyogenes) | MIC (Klebsiella pneumoniae) | MIC (Escherichia coli) | MIC (Bacillus subtilis) | MIC (Proteus vulgaris) | MIC (Staphylococcus aureus) | MIC (Pseudomonas aeruginosa) | MIC (Xanthomonas campestris) | MIC (Enterococcus faecalis) | MIC (Salmonella enteritidis) |
| --- | --- | --- | --- | --- | --- | --- | --- | --- | --- | --- |
| O=C(c1ccccc1)c1nn(-c2ccccc2)c(-c2ccccc2)c1C(=O)c1ccccc1 | inactive | inactive | inactive | inactive | 512 µg/mL (≈ 1190 µM) | inactive | inactive | 512 µg/mL (≈ 1190 µM) | inactive | inactive |
| O=C(N[C@H](CO)[C@H](O)c1ccc([N+](=O)[O-])cc1)C(Cl)Cl [CHLORAMPHENICOL] | 12 µg/mL (≈ 37.1 µM) | 12 µg/mL (≈ 37.1 µM) | 6 µg/mL (≈ 18.6 µM) | 24 µg/mL (≈ 74.3 µM) | 24 µg/mL (≈ 74.3 µM) | 6 µg/mL (≈ 18.6 µM) | 24 µg/mL (≈ 74.3 µM) | 12 µg/mL (≈ 37.1 µM) | 12 µg/mL (≈ 37.1 µM) | 24 µg/mL (≈ 74.3 µM) |
| NS(=O)(=O)NC(=O)c1nn(-c2ccccc2)c(-c2ccccc2)c1C(=O)c1ccccc1 | 32 µg/mL (≈ 71.7 µM) | 32 µg/mL (≈ 71.7 µM) | 32 µg/mL (≈ 71.7 µM) | inactive | 32 µg/mL (≈ 71.7 µM) | 32 µg/mL (≈ 71.7 µM) | 32 µg/mL (≈ 71.7 µM) | 32 µg/mL (≈ 71.7 µM) | inactive | 32 µg/mL (≈ 71.7 µM) |
| Nc1nnc(-c2ccccc2)c2c(-c3ccccc3)n(-c3ccccc3)nc12 | inactive | inactive | 512 µg/mL (≈ 1410 µM) | inactive | 512 µg/mL (≈ 1410 µM) | inactive | 32 µg/mL (≈ 88.1 µM) | 512 µg/mL (≈ 1410 µM) | inactive | inactive |
| N#Cc1nn(-c2ccccc2)c(-c2ccccc2)c1C(=O)c1ccccc1 | inactive | inactive | 512 µg/mL (≈ 1470 µM) | inactive | 512 µg/mL (≈ 1470 µM) | inactive | inactive | 512 µg/mL (≈ 1470 µM) | inactive | inactive |
| O=c1onc(-c2ccccc2)c2c(-c3ccccc3)n(-c3ccccc3)nc12 | 512 µg/mL (≈ 1400 µM) | inactive | 512 µg/mL (≈ 1400 µM) | inactive | 512 µg/mL (≈ 1400 µM) | inactive | inactive | 256 µg/mL (≈ 701 µM) | inactive | inactive |
